According to ChEMBL document CHEMBL4808235, “Identification of 6-hydroxy-5-phenyl sulfonylpyrimidin-4(1H)-one APJ receptor agonists” (Bioorg Med Chem Lett, 2021):

Experiments:
[1] = Metabolic stability in human liver microsomes assessed as parent compound remaining incubated for 10 mins in presence of NADPH; format: ADME, Microsome; conditions: read-out: Stabilty
Apelin receptor [2] = target: T1, Apelin receptor (Homo sapiens, UniProt P35414); assay: Agonist activity at human APJ receptor assessed as effect on cAMP accumulation by cAMP-Glo assay; format: functional
T1 sequence (P35414 whole entry): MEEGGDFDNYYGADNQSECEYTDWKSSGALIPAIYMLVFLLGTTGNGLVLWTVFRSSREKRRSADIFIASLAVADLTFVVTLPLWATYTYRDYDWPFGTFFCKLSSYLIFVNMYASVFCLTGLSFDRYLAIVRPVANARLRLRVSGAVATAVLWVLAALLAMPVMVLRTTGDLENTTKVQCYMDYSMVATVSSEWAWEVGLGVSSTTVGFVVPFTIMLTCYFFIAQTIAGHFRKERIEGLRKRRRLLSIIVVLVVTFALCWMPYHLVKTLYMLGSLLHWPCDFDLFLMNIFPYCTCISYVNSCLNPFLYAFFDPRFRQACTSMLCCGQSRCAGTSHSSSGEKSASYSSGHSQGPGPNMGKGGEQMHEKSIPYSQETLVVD

Apelin receptor [3] = target: T2, Apelin receptor (Mus musculus, UniProt Q9WV08); assay: Agonist activity at mouse APJ receptor assessed as effect on cAMP accumulation by cAMP-Glo assay
T2 sequence (Q9WV08 whole entry): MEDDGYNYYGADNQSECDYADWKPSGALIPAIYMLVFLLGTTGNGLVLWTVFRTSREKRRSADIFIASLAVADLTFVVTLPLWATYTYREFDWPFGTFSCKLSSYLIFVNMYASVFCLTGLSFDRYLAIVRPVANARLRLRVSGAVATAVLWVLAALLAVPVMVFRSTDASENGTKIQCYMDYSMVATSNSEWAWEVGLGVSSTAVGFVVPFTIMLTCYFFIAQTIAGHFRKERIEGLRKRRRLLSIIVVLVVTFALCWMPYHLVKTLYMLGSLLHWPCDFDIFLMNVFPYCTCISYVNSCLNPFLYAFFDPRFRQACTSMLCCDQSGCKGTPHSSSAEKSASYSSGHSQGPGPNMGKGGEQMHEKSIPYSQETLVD

[4] = Metabolic stability in mouse liver microsomes assessed as parent compound remaining incubated for 10 mins in presence of NADPH; format: ADME, Microsome; conditions: read-out: Stabilty
Apelin receptor [5] = target: T3, Apelin receptor (Rattus norvegicus, UniProt Q9JHG3); assay: Agonist activity at rat APJ receptor assessed as effect on cAMP accumulation by cAMP-Glo assay; format: functional
T3 sequence (Q9JHG3 whole entry): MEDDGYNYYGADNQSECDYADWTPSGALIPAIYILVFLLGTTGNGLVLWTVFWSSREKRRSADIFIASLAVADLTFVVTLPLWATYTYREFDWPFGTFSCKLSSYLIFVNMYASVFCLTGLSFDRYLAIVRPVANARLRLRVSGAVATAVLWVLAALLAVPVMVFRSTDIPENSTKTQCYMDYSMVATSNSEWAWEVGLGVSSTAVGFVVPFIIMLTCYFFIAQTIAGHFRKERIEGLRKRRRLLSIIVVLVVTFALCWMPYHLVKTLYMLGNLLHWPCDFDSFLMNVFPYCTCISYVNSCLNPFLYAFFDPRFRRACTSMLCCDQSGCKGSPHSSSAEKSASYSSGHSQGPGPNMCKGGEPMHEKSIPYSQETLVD

[6] = Permeability of the compound at pH 5.5 by PAMPA; format: ADME; conditions: read-out: permeability
[7] = Permeability of the compound at pH 7.4 by PAMPA; format: ADME; conditions: read-out: permeability
[8] = Metabolic stability in rat liver microsomes assessed as parent compound remaining incubated for 10 mins in presence of NADPH; format: ADME, Microsome; conditions: read-out: Stabilty
[9] = Cmax in cynomolgus monkey at 3 mg/kg, po; format: ADME, organism-based, Macaca fascicularis; parameters: route oral, dose 3 mg/kg; conditions: in vivo
[10] = Cmax in rat at 1 mg/kg, po; format: ADME, organism-based; parameters: route oral, dose 1 mg/kg; conditions: in vivo
[11] = Plasma concentration in Sprague-Dawley rat model of acute pressure-volume loop model assessed as free fraction at 10 mg/kg/min administered as iv infusion for 15 mins; format: ADME, organism-based; conditions: in vivo, 0.25 h
[12] = Plasma concentration in Sprague-Dawley rat model of acute pressure-volume loop model assessed as free fraction at 10 mg/kg/min administered as iv infusion for 5 mins; format: ADME, organism-based; conditions: in vivo
Rattus norvegicus [13] = assay: Hemodynamic activity in Sprague-Dawley rat model of acute pressure-volume loop model assessed as increase in dP/dT at 10 mg/kg/min administered as iv infusion for 15 mins relative to control; format: functional; conditions: 0.25 h
[14] = Toxicity activity in Sprague-Dawley rat model of acute pressure-volume loop model assessed as change in heart rate at 10 mg/kg/min administered as iv infusion for 15 mins relative to control; format: organism-based; conditions: in vivo, 0.25 h
Rattus norvegicus [15] = assay: Hemodynamic activity in Sprague-Dawley rat model of acute pressure-volume loop model assessed as increase in cardiac output at 10 mg/kg/min administered as iv infusion for 15 mins relative to control; format: functional; conditions: 0.25 h
[16] = Plasma concentration in Sprague-Dawley rat model of acute pressure-volume loop model at 10 mg/kg/min administered as iv infusion for 5 mins; format: ADME, organism-based
[17] = Toxicity activity in Sprague-Dawley rat model of acute pressure-volume loop model assessed as change in blood pressure at 10 mg/kg/min administered as iv infusion for 15 mins relative to control; format: organism-based; conditions: in vivo, 0.25 h
[18] = Plasma concentration in Sprague-Dawley rat model of acute pressure-volume loop model at 10 mg/kg/min administered as iv infusion for 15 mins; format: ADME, organism-based
in vivo [19] = conditions: rat, po, 1 mg/kg
in vivo [20] = conditions: cynomolgus monkey, po, 3 mg/kg
Description: AUC (0 to infinity) in cynomolgus monkey at 3 mg/kg, po

[21] = Half life in rat at 1 mg/kg, po; format: ADME, organism-based; conditions: in vivo
[22] = AUC (0 to 24 hrs) in rat at 1 mg/kg, po; format: ADME, organism-based; parameters: time < 24 hr, route oral, dose 1 mg/kg; conditions: in vivo

remaining at 10 min [1] [%] | EC50 (Apelin receptor [2]) [nM] | EC50 (Apelin receptor [3]) [nM] | remaining at 10 min [4] [%] | EC50 (Apelin receptor [5]) [nM] | Papp [6] [×10⁻⁶ cm/s] | Papp [7] [×10⁻⁶ cm/s] | remaining at 10 min [8] [%] | Structure (SMILES) | also measured
94 | 0.05 | 0.02 | 100 | 0.01 | 8.3 | – | 74 | CCCCc1nc(=O)c(S(=O)(=O)c2ccc(-n3cc(Cl)ccc3=O)cc2)c(O)n1-c1c(OC)cccc1OC | –
97 | 0.01 | 0.03 | 98 | 0.02 | 45.6 | – | 27 | CCCCc1nc(=O)c(S(=O)(=O)c2ccc(-c3cccnc3OC)cc2)c(O)n1-c1c(OC)cccc1OC | –
100 | 0.002 | 0.02 | 69 | 0.004 | 51.6 | 2.4 | 2 | CCCCc1nc(=O)c(S(=O)(=O)c2ccc(-c3ccc(F)nc3)cc2)c(O)n1-c1c(OC)cccc1OC | –
89 | – | – | 31 | 0.03 | 24.6 | 3.5 | 1 | COc1cccc(OC)c1-n1c(CCC(C)C)nc(=O)c(S(=O)(=O)c2ccc(-c3ccc(F)nc3)cc2)c1O | –
95 | 0.02 | 0.03 | 93 | 0.06 | 61.5 | 2.2 | 59 | CCCCc1nc(=O)c(S(=O)(=O)c2ccc(C3CC3)cc2)c(O)n1-c1c(OC)cccc1OC | Cmax [9]: 1500 nM; Cmax [10]: 6200 nM; Cp(f) [11]: 12 nM; Cp(f) [12]: 5.2 nM; Activity (Rattus norvegicus [13]): 14%; Activity [14]: Non-Toxic; Activity (Rattus norvegicus [15]): 11%; concentration at 5 min [16]: 2600 nM; Activity [17]: Non-Toxic; concentration at 0.25 h [18]: 5800 nM; AUC(0-inf) (in vivo [19]): 3.9 µM·h; AUC(0-inf) (in vivo [20]): 4.7 µM·h; half-life [21]: 5.6 h
94 | 0.2 | 0.3 | 80 | 0.3 | 24.3 | 0.7 | 74 | CCCCc1nc(=O)c(S(=O)(=O)c2ccc(C)cc2)c(O)n1-c1c(OC)cccc1OC | –
87 | 0.02 | 0.03 | 63 | – | 1.2 | 0.1 | 83 | CCCCc1nc(=O)c(S(=O)(=O)c2ccc(-n3ccccc3=O)cc2)c(O)n1-c1c(OC)cccc1OC | –
84 | 0.03 | 0.04 | 72 | 0.04 | 18.3 | 1.1 | 72 | CCCCc1nc(=O)c(S(=O)(=O)c2ccc(-c3ccnc(NC(=O)C4CC4)c3)cc2)c(O)n1-c1c(OC)cccc1OC | Cmax [10]: 400 nM; half-life [21]: 1.3 h; AUC(0-t) at 24 h [22]: 0.6 µM·h
88 | 0.04 | 0.05 | 57 | 0.05 | 20.2 | 0.6 | 3 | CCCCc1nc(=O)c(S(=O)(=O)c2ccc(-c3cccnc3)cc2)c(O)n1-c1c(OC)cccc1OC | –
100 | 0.08 | 0.1 | 47 | 0.02 | 41.8 | 13.2 | 5 | CCCCc1nc(=O)c(S(=O)(=O)c2ccc(-c3ccc(F)cc3)cc2)c(O)n1-c1c(OC)cccc1OC | –
89 | 0.5 | 1 | 79 | 0.9 | 14.1 | 0.15 | 93 | CCCCc1nc(=O)c(S(=O)(=O)c2ccccc2)c(O)n1-c1c(OC)cccc1OC | –

The remaining lines, values behind:

Structure (SMILES) | remaining at 10 min [1] [%] | EC50 (Apelin receptor [2]) [nM] | EC50 (Apelin receptor [3]) [nM] | remaining at 10 min [4] [%] | EC50 (Apelin receptor [5]) [nM] | Papp [6] [×10⁻⁶ cm/s] | Papp [7] [×10⁻⁶ cm/s] | remaining at 10 min [8] [%] | also measured
CCCCc1[nH]c(=O)c(S(=O)(=O)c2ccc(-c3cccnc3OC)cc2)c(O)c1-c1c(OC)cccc1OC | 72 | 0.03 | 0.2 | 24 | 0.7 | – | – | – | –
CCCCc1[nH]c(=O)c(S(=O)(=O)c2ccc(-n3ccccc3=O)cc2)c(O)c1-c1c(OC)cccc1OC | 100 | 0.5 | 2 | 75 | 3 | 17.7 | 0.5 | 100 | –
COc1cccc(OC)c1-n1c(-c2cncc(C)c2)nc(=O)c(S(=O)(=O)c2ccc(C3CC3)cc2)c1O | – | 5 | 5 | – | 10 | – | – | – | –
CCCCc1[nH]c(=O)c(S(=O)(=O)c2ccc(-c3ccncc3C)cc2)c(O)c1-c1c(OC)cccc1OC | 80 | 0.04 | 0.1 | 39 | 0.4 | 35.5 | 7.6 | 57 | –
COc1cccc(OC)c1-n1c(C2CCCC2)nc(=O)c(S(=O)(=O)c2ccc(C3CC3)cc2)c1O | – | 0.3 | 0.4 | – | 1.5 | – | – | – | –
CCCCc1[nH]c(=O)c(S(=O)(=O)c2ccc(-c3ccc(F)cc3)cc2)c(O)c1-c1c(OC)cccc1OC | – | 17 | 34 | – | 72 | – | – | – | –
CCCCc1[nH]c(=O)c(S(=O)(=O)c2ccc(-n3cc(Cl)ccc3=O)cc2)c(O)c1-c1c(OC)cccc1OC | 97 | 0.03 | 0.1 | 64 | 0.2 | 28.5 | 2.2 | 72 | –
CCCCc1[nH]c(=O)c(S(=O)(=O)c2ccc(-c3ccc(F)nc3)cc2)c(O)c1-c1c(OC)cccc1OC | – | 0.7 | 5 | – | 12 | – | – | – | –
COc1cccc(OC)c1-n1c(COC(C)C)nc(=O)c(S(=O)(=O)c2ccc(-c3ccc(F)nc3)cc2)c1O | 84 | 0.01 | 0.03 | 90 | 0.02 | 7.5 | 0.4 | 30 | –
CCOCc1nc(O)c(-c2nnc(Cc3ccc(Cl)cn3)o2)c(O)c1-c1c(OC)cccc1OC [BMS-986224] | – | – | 0.027 | – | – | – | – | – | Cmax [10]: 5300 nM; AUC(0-inf) (in vivo [19]): 15.5 µM·h; half-life [21]: 2.3 h; AUC(0-t) at 24 h [22]: 16 µM·h
